# Laboratory results taken from patent US6800297B2, “Porous COX-2 inhibitor matrices and methods of manufacture thereof” (Acusphere, Inc., priority 2000, dated 2004).
# Experiment: In vitro dissolution of rofecoxib in T80/PBS
# Assay type: physicochemical
# Conditions: after 1 hour; PBS containing 0.08% Tween 80, 200 mL; FIG. 2, FIG. 3
# Protocol: Rofecoxib containing materials (either tablets, or bulk rofecoxib powder, or porous rofecoxib matrix powder) containing 20-31 mg of rofecoxib were added to 200 mL of 5% dextrose at room temperature in a 600 mL beaker. For bulk rofecoxib powder and porous rofecoxib matrix powder the resulting suspension was stirred for 5 minutes. For tablets (either marketed rofecoxib tablets (VIOXX®) or porous rofecoxib matrix tablet) the resulting suspension was stirred for 3-4 minutes beyond the time required for complete tablet disintegration. A sample of the suspension (containing 0.050-0.077 mg of rofecoxib) was then transferred to the dissolution vessel.
# Dissolution studies for rofecoxib were conducted in PBS (phosphate buffered saline) containing 0.08% Tween 80 (T80/PBS). The dissolution vessel was a 600 mL beaker containing 200 mL of T80/PBS, and was stirred Samples were removed via pipet and centrifuged for 5 minutes at 10,000 rpm. Samples were analyzed by HPLC for rofecoxib. Control samples (for total rofecoxib concentration in the suspension vessel) were removed via pipet, and dissolved in acetonitrile, and the resulting solutions analyzed by HPLC for rofecoxib. […]
structure (smiles),measurement,value
"CS(=O)(=O)c1ccc(C2=C(c3ccccc3)C(=O)OC2)cc1 [rofecoxib, 4-[4-(methylsulfonyl)phenyl]-3-phenyl-2(5H)-furanone]",percent dissolved (relative to total rofecoxib concentration in the suspension vessel),41%
